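Protocol summary: plate cells (96-well), add compound at 5 concentrations, incubate 48 h, interpolate endpoints linearly. The concentration for 50% growth inhibition is given as GI50.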 Calls of active or inactive are those of the source. Cut-off read from the data, not from the text of the source: active = GI50 up to about 1.1 µM and inactive = higher.
What was measured:
Test in all cases: NCI-60 cell line screen, 48 h
SK-MEL-2 = test system: SK-MEL-2
SW-620 = test system: SW-620
A498 = test system: A498
HOP-62 = test system: HOP-62
NCI-H23 = test system: NCI-H23
SK-OV-3 = test system: SK-OV-3
Malme-3M = test system: Malme-3M
M14 = test system: M14
EKVX = test system: EKVX
OVCAR-8 = test system: OVCAR-8
UACC-257 = test system: UACC-257
OVCAR-4 = test system: OVCAR-4
SK-MEL-5 = test system: SK-MEL-5
UACC-62 = test system: UACC-62
HOP-92 = test system: HOP-92
RXF 393 = test system: RXF 393

SMILES	GI50 (SK-MEL-2)	GI50 (SW-620)	GI50 (A498)	GI50 (HOP-62)	GI50 (NCI-H23)	GI50 (SK-OV-3)	GI50 (Malme-3M)	GI50 (M14)	GI50 (EKVX)	GI50 (OVCAR-8)	GI50 (UACC-257)	GI50 (OVCAR-4)	GI50 (SK-MEL-5)	GI50 (UACC-62)	GI50 (HOP-92)	GI50 (RXF 393)
O=C1C=CC=CC2CC=C[C@@H](O)C12 (some centres undefined)	22.1 µM (inactive)	10.5 µM (inactive)	15.9 µM (inactive)	45.7 µM (inactive)	> 10 µM (inactive)	69.7 µM (inactive)	21.3 µM (inactive)	18.7 µM (inactive)	24.5 µM (inactive)	29.6 µM (inactive)	14 µM (inactive)	31 µM (inactive)	18 µM (inactive)	17.8 µM (inactive)	–	–
C=Cc1cncc(C#N)c1CCc1c(C#N)cncc1C=C	> 10 µM (inactive)	> 10 µM (inactive)	> 10 µM (inactive)	> 10 µM (inactive)	> 10 µM (inactive)	> 10 µM (inactive)	> 10 µM (inactive)	> 10 µM (inactive)	49 µM (inactive)	> 10 µM (inactive)	> 10 µM (inactive)	> 10 µM (inactive)	> 10 µM (inactive)	> 10 µM (inactive)	> 10 µM (inactive)	56.5 µM (inactive)
COc1cccc2c1[C@H]1OC(=O)NC1CCCCC2 (some centres undefined)	> 100 µM (inactive)	> 100 µM (inactive)	> 100 µM (inactive)	> 100 µM (inactive)	> 100 µM (inactive)	> 100 µM (inactive)	> 100 µM (inactive)	> 100 µM (inactive)	> 100 µM (inactive)	> 100 µM (inactive)	> 100 µM (inactive)	> 100 µM (inactive)	> 100 µM (inactive)	> 100 µM (inactive)	–	> 100 µM (inactive)
CCN(CC)c1ccc(/N=C2/C=CC(=O)c3ncccc32)c(C)c1	15.1 µM (inactive)	2.53 µM (inactive)	–	20.2 µM (inactive)	5.94 µM (inactive)	20 µM (inactive)	3.82 µM (inactive)	3.02 µM (inactive)	16.6 µM (inactive)	3.42 µM (inactive)	4.38 µM (inactive)	2.11 µM (inactive)	5.53 µM (inactive)	5.06 µM (inactive)	6.75 µM (inactive)	3.48 µM (inactive)
C/C(CCN(C)C)=N/O	16.5 µM (inactive)	2.71 µM (inactive)	–	1.77 µM (inactive)	8.32 µM (inactive)	17.9 µM (inactive)	–	0.859 µM (active)	1.55 µM (inactive)	0.826 µM (active)	15.7 µM (inactive)	< 0.01 µM (active)	–	1.15 µM (inactive)	9.44 µM (inactive)	6.05 µM (inactive)
COC(=O)NC(=O)c1cn(CCCOC(=O)CCCCCCCCC(=O)OCCCn2cc(C(=O)NC(=O)OC)c(=O)[nH]c2=O)c(=O)[nH]c1=O	> 100 µM (inactive)	> 100 µM (inactive)	> 100 µM (inactive)	23.1 µM (inactive)	39.3 µM (inactive)	–	> 100 µM (inactive)	> 100 µM (inactive)	55.2 µM (inactive)	23.9 µM (inactive)	> 100 µM (inactive)	> 100 µM (inactive)	> 100 µM (inactive)	> 100 µM (inactive)	36.7 µM (inactive)	29.4 µM (inactive)
CN(C(=O)C12C3C4C1C1C2C3C41C(O)C(C)(C)C)C(C)(C)C (centres undefined)	> 100 µM (inactive)	> 100 µM (inactive)	> 100 µM (inactive)	> 100 µM (inactive)	> 100 µM (inactive)	> 100 µM (inactive)	> 100 µM (inactive)	> 100 µM (inactive)	> 100 µM (inactive)	> 100 µM (inactive)	> 100 µM (inactive)	> 100 µM (inactive)	> 100 µM (inactive)	> 100 µM (inactive)	–	–
O=c1c2cc(Br)cc(Br)c2[nH]c(=S)n1-c1ccccc1	> 100 µM (inactive)	71.4 µM (inactive)	> 100 µM (inactive)	88.5 µM (inactive)	28.4 µM (inactive)	> 100 µM (inactive)	82.4 µM (inactive)	> 100 µM (inactive)	58.1 µM (inactive)	63 µM (inactive)	> 100 µM (inactive)	86.3 µM (inactive)	54.8 µM (inactive)	91.2 µM (inactive)	28.9 µM (inactive)	–
CCOC(=O)NC(=O)c1cn(CCCO)c(=O)[nH]c1=O	> 100 µM (inactive)	> 100 µM (inactive)	> 100 µM (inactive)	> 100 µM (inactive)	> 100 µM (inactive)	> 100 µM (inactive)	> 100 µM (inactive)	> 100 µM (inactive)	> 100 µM (inactive)	> 100 µM (inactive)	> 100 µM (inactive)	> 100 µM (inactive)	> 100 µM (inactive)	> 100 µM (inactive)	> 100 µM (inactive)	–
CN(C)CCNC(=O)c1cccc2c(Nc3ccc(S(=O)(=O)N=C(N)N)cc3)c3ccccc3nc12	19.2 µM (inactive)	7.23 µM (inactive)	–	11.3 µM (inactive)	29 µM (inactive)	–	–	30.8 µM (inactive)	20.6 µM (inactive)	8.79 µM (inactive)	–	13.5 µM (inactive)	13.9 µM (inactive)	10.3 µM (inactive)	–	28 µM (inactive)
CN(C)CC1CCCC(CN(C)C)C1=NOC(=O)c1ccccc1 (centres undefined)	> 100 µM (inactive)	> 100 µM (inactive)	> 100 µM (inactive)	> 100 µM (inactive)	> 100 µM (inactive)	> 100 µM (inactive)	> 100 µM (inactive)	> 100 µM (inactive)	> 100 µM (inactive)	> 100 µM (inactive)	> 100 µM (inactive)	–	> 100 µM (inactive)	> 100 µM (inactive)	> 100 µM (inactive)	–
COC(=O)C(=O)CC(=O)CCn1ncc(Cl)c(Cl)c1=O	18.1 µM (inactive)	8.36 µM (inactive)	32.8 µM (inactive)	22.7 µM (inactive)	13.2 µM (inactive)	31 µM (inactive)	18.7 µM (inactive)	14.7 µM (inactive)	19.5 µM (inactive)	13.3 µM (inactive)	15.8 µM (inactive)	4.62 µM (inactive)	16.3 µM (inactive)	10 µM (inactive)	15.7 µM (inactive)	20.2 µM (inactive)
CC(C(=O)c1ccccc1)C1(O)C(=O)Nc2ccc(Cl)cc21 (centres undefined)	> 100 µM (inactive)	49.1 µM (inactive)	> 100 µM (inactive)	> 100 µM (inactive)	> 100 µM (inactive)	> 100 µM (inactive)	> 100 µM (inactive)	> 100 µM (inactive)	> 100 µM (inactive)	> 100 µM (inactive)	31.6 µM (inactive)	19.2 µM (inactive)	–	42.2 µM (inactive)	> 100 µM (inactive)	> 100 µM (inactive)
CN(C)c1[se]nc2c1c(=O)n(C)c(=O)n2C	> 100 µM (inactive)	> 100 µM (inactive)	> 100 µM (inactive)	> 100 µM (inactive)	> 100 µM (inactive)	> 100 µM (inactive)	> 100 µM (inactive)	–	> 100 µM (inactive)	> 100 µM (inactive)	> 100 µM (inactive)	> 100 µM (inactive)	> 100 µM (inactive)	> 100 µM (inactive)	> 100 µM (inactive)	–
COc1ccc2c(CCNC(C)=O)c(C(C)=O)[nH]c2c1	> 100 µM (inactive)	> 100 µM (inactive)	> 100 µM (inactive)	> 100 µM (inactive)	> 10 µM (inactive)	–	–	> 100 µM (inactive)	> 100 µM (inactive)	> 100 µM (inactive)	> 100 µM (inactive)	> 100 µM (inactive)	–	> 100 µM (inactive)	–	> 100 µM (inactive)
COC(=O)C1C(=O)O[C@@H](c2ccc(OC)cc2)C1C(=O)OC (some centres undefined)	–	> 100 µM (inactive)	52.4 µM (inactive)	> 100 µM (inactive)	> 100 µM (inactive)	> 100 µM (inactive)	> 100 µM (inactive)	> 100 µM (inactive)	> 100 µM (inactive)	> 100 µM (inactive)	> 100 µM (inactive)	> 100 µM (inactive)	> 100 µM (inactive)	> 100 µM (inactive)	> 100 µM (inactive)	> 100 µM (inactive)
CC1CCP(=O)(c2ccccc2)CC1 (centres undefined)	> 100 µM (inactive)	> 100 µM (inactive)	> 10 µM (inactive)	> 100 µM (inactive)	> 100 µM (inactive)	> 100 µM (inactive)	> 100 µM (inactive)	> 100 µM (inactive)	> 100 µM (inactive)	> 100 µM (inactive)	> 100 µM (inactive)	> 100 µM (inactive)	> 100 µM (inactive)	> 100 µM (inactive)	–	> 100 µM (inactive)
O=C1Nc2ccccc2/C1=N/NC(=O)c1ccccc1O	23 µM (inactive)	46.8 µM (inactive)	23.5 µM (inactive)	57.3 µM (inactive)	24.5 µM (inactive)	12.1 µM (inactive)	35.1 µM (inactive)	50.1 µM (inactive)	68.5 µM (inactive)	44.5 µM (inactive)	44 µM (inactive)	75.5 µM (inactive)	–	36.1 µM (inactive)	–	16.6 µM (inactive)
CCOC(=O)N1C(=O)C2C3C=CC(C2C1=O)C1C2C(=O)N(C(=O)OCC)C(=O)C2C31 (centres undefined)	> 100 µM (inactive)	> 41 µM (inactive)	> 100 µM (inactive)	> 100 µM (inactive)	> 100 µM (inactive)	> 100 µM (inactive)	> 100 µM (inactive)	> 100 µM (inactive)	> 100 µM (inactive)	> 100 µM (inactive)	> 100 µM (inactive)	> 100 µM (inactive)	> 100 µM (inactive)	> 100 µM (inactive)	> 100 µM (inactive)	> 100 µM (inactive)
